# Starred links: 1 amine or outer side, 2 acyl side, 3 side chain; linkers in the order of their positions; H or OH if unused. Residues, ends and D or L forms follow the SMILES beside them. Suc = O=C(CCC(=O)[*:2])[*:1]
row,Compound,melting point [°C]
1,"NC(=O)COCCN1CCN(C(c2ccccc2)c2ccc(Cl)cc2)CC1 (single isomer, unassigned; (-))",94.3
2,Fc1cc(F)cc(Cn2cnnc2S)c1,129 to 130
3,CCOC(=O)Cn1c(=O)c(=O)[nH]c2cc(Br)ccc21,282 to 283
4,Cc1nccn1CC1CCC(Nc2ccccc2I)=CC1=O (centres undefined),88 to 100
5,CCC1=Cc2cc(OCC(=O)O)c(Cl)c(Cl)c2C1=O,205 to 207
6,CCCCNC(=O)NS(=O)(=O)c1c(C(=O)OCC)cnn1C,117 to 119
7,O=C(NCCOc1cc(-c2ccccc2)on1)c1ccccc1,129 to 130
8,O=c1ncc(C(F)(F)F)cn1COc1ccc(Cl)cc1,98
9,COc1ccc(C2=NO[C@]3(CCOC3)C2)cc1OC1Cc2ccccc2C1,138
10,O=C1CCC(c2ccc(Cl)cc2)N1c1ccccc1 (centres undefined),82.5 to 83.5
11,CCCCC(=O)OC(C)OC(=O)NC1(C(=O)O)CC1 (centres undefined),148 to 151
12,CC1=CC(O)C(OC(=O)c2ccccc2)C(C)(C)CC1OC(=O)c1ccccc1 (centres undefined),142 to 144
13,Cc1cc(C)cc(COC(=O)C(Cc2c[nH]c3ccccc23)NS(C)(=O)=O)c1 (centres undefined),96 to 97
14,COC(=O)c1ccc(S(C)(=O)=O)c(C=NO)c1Cl,126 to 128
15,O=C(c1ccc(Cl)c(Cl)c1)N1CCc2cc(S(=O)(=O)N3CCN(c4cccc(Cl)c4)CC3)ccc21,174 to 175
16,Cn1c(-c2ccccc2)cc2cc(N)ccc21,108 to 110
17,Cc1coc2c(C(=O)c3cccs3)cc(C(C)(C)C)c(O)c12,145
18,C=C(C)C(=O)CC/C(C)=C/CC/C(C)=C/C(N)=O,42 to 44
19,C=CCNCc1noc(-c2ncn3c2CN(C)C(=O)c2c(Cl)cccc2-3)n1,171 to 174
20,COC(=O)C(O)C(CC(C)C)NC(=O)C(CC(C)C)NC(=O)C(CC(=O)N1CCOCC1)Cc1cccc2ccccc12 (mixture of isomers),69 to 70
21,CCCCN(CC(=O)OCc1ccccc1)S(=O)(=O)c1ccc(N2CCC(NC[C@H](O)c3ccc(O)c(NS(C)(=O)=O)c3)CC2)cc1,59 to 64
22,COc1ccc(CCNC(=O)c2ccc3n2Cc2ccccc2N(C(=O)c2ccc(-c4ccccc4C)c(C)c2)C3)cc1OC,130 to 136
23,COC(=O)CC1CC(c2cccc(C3(c4ccc(OC(F)F)cc4)N=C(N)N(C)C3=O)c2)C1 (centres undefined),68 to 70
24,NCc1noc(-c2ncn3c2[C@@H]2CCN2C(=O)c2c(Cl)cccc2-3)n1,206 to 208

row,Compound,melting point [°C]
1,CCCCn1c(=O)c2c(nc(/C=C/c3cc(OC)c(OC)c(OC)c3)n2C)n(CCCC)c1=O,137
2,COc1cc2c(sc3nc(C)c(CO)n32)c(OC)c1OC,196
3,CCOC(=O)c1cn(Cc2ccccc2)nc1NC(=O)NCc1ccccc1,82 to 83
4,Cc1cc(N2CCC3(CC2)OCCO3)nn2cnnc12,156 to 157
5,CN1CC(c2ccc(OC(F)(F)F)cc2)(c2ccc(F)c(-c3cccnc3F)c2)N=C1N (centres undefined),65 to 70
6,COc1ccc(Cc2c(F)cccc2F)c(N(CC(N)=O)S(=O)(=O)c2ccc(OC)c(OC)c2)c1,188
7,C=CCNc1nc(C2C(=O)Nc3ccc(Br)cc32)c2cn(CCC)nc2n1 (centres undefined),322 to 326
8,COc1ccc(-n2c(Cn3ccnc3)nc3ccccc32)cc1,113 to 114
9,CCOCCNc1nc(C)c(CCO)c(=O)[nH]1,172
10,CN(C)c1ccc(C=CC(=O)c2ccc3c(c2)CCCC3)cc1,134 to 135
11,CCCCCCCCCCCC(=O)OCc1ccccc1-c1nc(-c2cccc(OC)c2)n[nH]1,45
12,CCOc1cc(Oc2ccc(C(F)(F)F)cn2)ccc1CCCO,50 to 51
13,Cc1noc(NC(=O)c2cnccc2C(F)(F)F)c1Cl,153 to 156
14,COc1cc2c(cc1O)CCN(Cc1cccc(C(C)=O)c1)C2,132 to 134
15,CCCCCCCCCCNC(=O)C=Cc1cccc(NC(=O)/C=C\C(=O)O)c1,187 to 188
16,Fc1ccc(CN2CCN(C3CC=C(c4ccc(F)cc4)CC3)CC2)cc1 (centres undefined),109 to 110
17,CCCCCCCCCCCCCCCCOCC(CO)COC(C)=O (centres undefined),33
18,N#Cc1cc(C(=O)NNC(=O)c2occ(-c3cccc(OCc4ccccc4)c3)c2-c2cccc(OCc3ccccc3)c2)ccc1O,171 to 174
19,CN1CCN(Cc2ccc(NC(=O)c3ccc(Cl)c(C#Cc4ccc(NC5CCC5)nn4)c3)cc2C(F)(F)F)CC1,132 to 133
20,CCn1c2ccccc2c(=NN=C2NCCS2)c2ccccc21,187 to 188
21,CC(C)C[C@@H](C(=O)N1CCN(C(c2ccc(F)cc2)c2ccc(F)cc2)CC1)N(C)C1CCCCC1,171 to 182
22,Nc1ccc(OCc2ccccc2)c(CCCc2ccc(NC(=O)Cc3cccnc3)cc2)c1,110 to 112
23,COc1cccc(-n2c(=O)c3c(c4cccnc42)OC(COC(C)=O)C3)c1 (centres undefined),183 to 184
24,CCC(Oc1ccc([N+](=O)[O-])cc1)C(=O)NCc1ccccc1OC (centres undefined),109 to 112

row,Compound,melting point [°C]
1,Clc1ccc(C2(CBr)OCC(COc3ccc4ccccc4c3)O2)c(Cl)c1 (centres undefined),118
2,Nc1ccc(Cl)cc1C(=O)c1cccc(Cl)c1,118 to 119
3,COc1ccc(Nc2nccc3ccn(S(=O)(=O)c4ccc(OC)cc4)c23)cc1,156 to 158
4,COc1cc(C)c(C=CC(C)=CC=CC(=O)O)c(C)c1C,189 to 191
5,COc1ccc2c(c1)C(C)N(C)C(=O)C2c1cc(OC)c(OC)c(OC)c1 (centres undefined),135 to 140
6,CCCCCCCN(CCCCCSc1nc(-c2ccccc2)c(-c2ccccc2)[nH]1)C(=O)NC,93 to 96
7,COC(=O)c1ccc(C(=O)N[C@@H](CC(C)C)C(=O)N[C@@H](C(C)C)[C@@H](O)c2c(-c3ccccc3)c2=O)cc1,125 to 128
8,O=C1N(Cc2ncccc2C(F)(F)F)c2ccccc2C12COc1cc3c(cc12)OC(F)(F)O3 (centres undefined),200 to 201
9,COc1cc2c(cc1C)CCN(C)C2C1(c2ccsc2)CC1 (centres undefined),103 to 105
10,CCCCCC1CCN([C@H]2CC[C@H](C(=O)OC)CC2)CC1,5
11,CCNC(=O)C1CCCN1C(=O)C(C)NC(=O)C(C)NC(=O)CCC(=O)O (stereo not drawn) (Suc-Ala-Ala-Pro-NHEt; configuration not given here),185 to 186
12,O=C(O)COc1c(Cl)cc(Cl)cc1Cl,180 to 183
13,COC(=O)CCCc1cc2nc(Cl)ccc2n1S(=O)(=O)c1ccc2nc(C)sc2c1,117
14,O=C(c1ccc(Cl)c(Cl)c1)N1CCCC(c2cccs2)=N1,124 to 125
15,CCCCC1Oc2cc(C(=O)OC)ccc2NC1=O (centres undefined),139 to 140
16,CC(C)(C)OC(=O)NCC1=C(CC(=O)O)CC=CC1,183
17,Clc1ccc(-c2cc(CCC3CCCNC3)c3ccccc3n2)cc1 (centres undefined),155
18,OCc1cc2c3ccccc3n(Cc3ccccc3)c2s1,81 to 82
19,CN(C(=O)N1CCN(C[C@@]2(C)Cn3cc([N+](=O)[O-])nc3O2)CC1)c1ccc(C(F)(F)F)cc1,100 to 102
20,O=C(CCCC1CCN(Cc2ccccc2)CC1)c1ccc(N2CCCC2)cc1,115 to 116
21,CCCCCCN(Cc1ccc2ccccc2n1)C(Nc1ccc(OC)cc1OC)=C1C(=O)OC(C)(C)OC1=O,106 to 109
22,CNC(=O)C(Cc1ccc(OC)cc1)NC(=O)C(CC(C)C)C(S)CC(=O)OC (centres undefined),80 to 86
23,Nc1ccc(-n2c(-c3ccccc3)cc3c2CCCC3)cc1C(=O)O,206
24,COc1ccc2cc(CNCCNC(=O)C34CC5CC(CC(C5)C3)C4)oc2c1OC,206 to 207

row,Compound,melting point [°C]
1,O=C(O)Cc1ccc(-c2ccc(F)cc2F)c(F)c1,145 to 147
2,CCCCCc1c(C(C)C)nc(C(C)C)c(CO)c1-c1ccc(CC)cc1,87 to 88
3,O=C(O)CCCCCNC(=O)c1cn2c3c(cccc13)CCC2,158 to 161
4,O=S(=O)(NCC1CCCO1)c1ccc(Nc2nc(OCC3CCCCC3)c3nc[nH]c3n2)cc1 (centres undefined),134 to 136
5,CC(=O)NC[C@H]1CN(c2ccc(N3CCC(n4ncn(C)c4=S)CC3)c(F)c2)C(=O)O1,182 to 185
6,"COC(=O)c1cncn1C1c2ccccc2CC1(C)C (single isomer, unassigned; (-))",74 to 76
7,CC(C)(C)OC(=O)N1CCC2(CC1)C(=O)N(CC(=O)O)CN2CC1CCCCC1,148 to 149
8,Cc1cc(NCc2ccccc2)nc(-n2nc(C)cc2C)n1,136 to 137
9,O=c1cc(NCCN2CCN(c3ncccn3)CC2)cn[nH]1,199 to 201
10,OC(CN1CCOCC1)c1cc(C(F)(F)F)nc2c(C(F)(F)F)cccc12 (centres undefined),129 to 130
11,O=C1Cc2ccc(-c3cnc4[nH]c(=O)n(CC5CCCCC5)c4n3)cc2N1,334 to 336
12,CCC(=O)N(CC)c1cccc(-c2ccc3nnc(NC)n3n2)c1,172 to 173
13,O=C(CCc1ccccc1)OCCOC(=O)NC1(C(=O)O)CC1,133 to 134
14,Clc1ccc(N2CCN(Cc3n[nH]c4c(Cl)cccc34)CC2)nc1,150 to 152
15,CCCc1c(OCc2ccc(C(=O)OCC)c(OCC)c2)ccc(C(C)=O)c1O,92 to 94
16,COc1ccc(NS(=O)(=O)c2cc(C)cc(C(C)(C)C)c2O)cc1,130 to 134
17,CCCCc1nc(C(C)(C)O)c(C#N)n1C(c1ccccc1)(c1ccccc1)c1ccccc1,151 to 152
18,Cc1nc(Nc2ccc(Cl)cc2)sc1-c1nc2ccccc2c(=O)n1-c1ccccc1Cl,237 to 238
19,CC(C)=CCOc1ccc(C2=C(CC(C)C)C(=O)NC2=O)cc1,110 to 111
20,O=C(Nc1ccccc1)ONC1=Nc2ccc(Cl)cc2C(c2ccccc2)=NC1,215 to 217
21,COc1ccccc1N1CCN(C(=O)CCCCN2CC=C(c3c[nH]c4cc(F)ccc34)CC2)CC1,78 to 81
22,Cc1ccc(N2C(=O)C(O)=C(C(=O)c3ccc(OC(F)(F)F)cc3)C2c2ccc(Cn3cnnn3)cc2)nn1 (centres undefined),> 300
